Numbers after ± are expanded uncertainties.
Conditions: Liquid

## CC[S+]([O-])CC [diethyl sulfoxide]
298.15 K
  vapor or sublimation pressure: 0.0202 ± 0.0046 kPa
303.15 K
  vapor or sublimation pressure: 0.0339 ± 0.005 kPa
308.15 K
  vapor or sublimation pressure: 0.0438 ± 0.0054 kPa
313.15 K
  vapor or sublimation pressure: 0.0681 ± 0.0064 kPa
318.15 K
  vapor or sublimation pressure: 0.0924 ± 0.0075 kPa
